pEC50: −log10 of the molar value. Read-outs that look alike come from different tables or passages of the source. Some results are limits rather than exact numbers.

The test system of the assay is recombinant NL-Rluc virus. Put plainly: Inhibition of HIV replication (NL-Rluc virus, luciferase readout in MT-2 cells). The assay is classed as cell-based. The following applies: Human immunodeficiency virus 1, MT2, 120 h.

With `Cc1nc2cc(NC(=O)C(Oc3ccccc3)C(C)C)nn2c(-c2cc(F)c3c(c2C)CCCO3)c1[C@H](OC(C)(C)C)C(=O)O` (mixture of isomers) [Example 24, (2S)-2-tert-butoxy-2-(7-(8-fluoro-5-methylchroman-6-yl)-5-methyl-2-(3-methyl-2-phenoxybutanamido)pyrazolo[1,5-a]pyrimidin-6-yl)acetic acid], the pEC50 (read-out: Activity) was greater than 7.00.
In the case of `Cc1nc2cc(N)nn2c(-c2cc(F)c3c(c2C)CCCO3)c1[C@H](OC(C)(C)C)C(=O)O` [Example 1, (2S)-2-(2-amino-7-(8-fluoro-5-methylchroman-6-yl)-5-methylpyrazolo[1,5-a]pyrimidin-6-yl)-2-tert-butoxyacetic acid], the pEC50 was 5.61. Besides, the pEC50 (read-out: Activity) is less than 6.00.
`Cc1nc2cc(NC(=O)CCC3CCCC3)nn2c(-c2cc(F)c3c(c2C)CCCO3)c1[C@H](OC(C)(C)C)C(=O)O` [Example 2, (2S)-2-tert-butoxy-2-(2-(3-cyclopentylpropanamido)-7-(8-fluoro-5-methylchroman-6-yl)-5-methylpyrazolo[1,5-a]pyrimidin-6-yl)acetic acid]: the pEC50 (read-out: Activity) is greater than 7.00.
In the case of `Cc1nc2cc(NC(=O)Cc3ccc(F)cc3)nn2c(-c2cc(F)c3c(c2C)CCCO3)c1[C@H](OC(C)(C)C)C(=O)O` [Example 3, (2S)-2-tert-butoxy-2-(7-(8-fluoro-5-methylchroman-6-yl)-2-(2-(4-fluorophenyl)acetamido)-5-methylpyrazolo[1,5-a]pyrimidin-6-yl)acetic acid], the pEC50 is 7.10. For the same compound, for the setting “read-out: Activity”, the pEC50 was greater than 7.00.
`Cc1nc2cc(NC(=O)Cc3ccccc3)nn2c(-c2cc(F)c3c(c2C)CCCO3)c1[C@H](OC(C)(C)C)C(=O)O` [Example 4, (2S)-2-tert-butoxy-2-(7-(8-fluoro-5-methylchroman-6-yl)-5-methyl-2-(2-phenylacetamido)pyrazolo[1,5-a]pyrimidin-6-yl)acetic acid]: the pEC50 is 6.92. For the same compound, under “read-out: Activity”, the pEC50 was 6.00 to 7.00.
Consider `Cc1nc2cc(NC(=O)c3cccc(F)c3)nn2c(-c2cc(F)c3c(c2C)CCCO3)c1[C@H](OC(C)(C)C)C(=O)O` [Example 5, (2S)-2-tert-butoxy-2-(7-(8-fluoro-5-methylchroman-6-yl)-2-(3-fluorobenzamido)-5-methylpyrazolo[1,5-a]pyrimidin-6-yl)acetic acid], for which the pEC50 (read-out: Activity) is greater than 7.00.
Same read-out and setting: the same measure for `COc1cccc(C(=O)Nc2cc3nc(C)c([C@H](OC(C)(C)C)C(=O)O)c(-c4cc(F)c5c(c4C)CCCO5)n3n2)c1` [Example 6, (2S)-2-tert-butoxy-2-(7-(8-fluoro-5-methylchroman-6-yl)-2-(3-methoxybenzamido)-5-methylpyrazolo[1,5-a]pyrimidin-6-yl)acetic acid]: greater than 7.00; for `Cc1nc2cc(NC(=O)c3cccc(OCc4ccccc4)c3)nn2c(-c2cc(F)c3c(c2C)CCCO3)c1[C@H](OC(C)(C)C)C(=O)O` [Example 7, (2S)-2-(2-(3-(benzyloxy)benzamido)-7-(8-fluoro-5-methylchroman-6-yl)-5-methylpyrazolo[1,5-a]pyrimidin-6-yl)-2-tert-butoxyacetic acid]: greater than 7.00; for `Cc1nc2cc(NC(=O)c3cccc(C#N)c3)nn2c(-c2cc(F)c3c(c2C)CCCO3)c1[C@H](OC(C)(C)C)C(=O)O` [Example 8, (2S)-2-tert-butoxy-2-(2-(3-cyanobenzamido)-7-(8-fluoro-5-methylchroman-6-yl)-5-methylpyrazolo[1,5-a]pyrimidin-6-yl)acetic acid]: 6.00 to 7.00.
In the case of `Cc1nc2cc(NC(=O)COCc3ccccc3)nn2c(-c2cc(F)c3c(c2C)CCCO3)c1[C@H](OC(C)(C)C)C(=O)O` [Example 9, (2S)-2-(2-(2-(benzyloxy)acetamido)-7-(8-fluoro-5-methylchroman-6-yl)-5-methylpyrazolo[1,5-a]pyrimidin-6-yl)-2-tert-butoxyacetic acid], where the note is “read-out: Activity”, the pEC50 was greater than 7.00.
Take `Cc1ccc(C(=O)Nc2cc3nc(C)c([C@H](OC(C)(C)C)C(=O)O)c(-c4cc(F)c5c(c4C)CCCO5)n3n2)cc1C` [Example 10, (2S)-2-tert-butoxy-2-(2-(3,4-dimethylbenzamido)-7-(8-fluoro-5-methylchroman-6-yl)-5-methylpyrazolo[1,5-a]pyrimidin-6-yl)acetic acid]: where the note is “read-out: Activity”, the pEC50 is greater than 7.00.
On the same count and under the same terms, the same measure for `Cc1nc2cc(NC(=O)c3cc(C(C)(C)C)nn3C)nn2c(-c2cc(F)c3c(c2C)CCCO3)c1[C@H](OC(C)(C)C)C(=O)O` [Example 11, (2S)-2-tert-butoxy-2-(2-(3-tert-butyl-1-methyl-1H-pyrazole-5-carboxamido)-7-(8-fluoro-5-methylchroman-6-yl)-5-methylpyrazolo[1,5-a]pyrimidin-6-yl)acetic acid]: greater than 7.00.
As to `Cc1nc2cc(NC(=O)CCCc3ccccc3)nn2c(-c2cc(F)c3c(c2C)CCCO3)c1[C@H](OC(C)(C)C)C(=O)O` [Example 12, (2S)-2-tert-butoxy-2-(7-(8-fluoro-5-methylchroman-6-yl)-5-methyl-2-(4-phenylbutanamido)pyrazolo[1,5-a]pyrimidin-6-yl)acetic acid], the pEC50 is 7.30. Moreover, the pEC50 (read-out: Activity) was greater than 7.00.
On to `Cc1nc2cc(NC(=O)COC3C[C@@H](C)CC[C@@H]3C(C)C)nn2c(-c2cc(F)c3c(c2C)CCCO3)c1[C@H](OC(C)(C)C)C(=O)O` (stereo partly drawn) [Example 13, (2S)-2-tert-butoxy-2-(7-(8-fluoro-5-methylchroman-6-yl)-2-(2-((2R,5S)-2-isopropyl-5-methylcyclohexyloxy)acetamido)-5-methylpyrazolo[1,5-a]pyrimidin-6-yl)acetic acid], for which, where the note is “read-out: Activity”, the pEC50 is greater than 7.00.
For the compound `CCOc1cccc(C(=O)Nc2cc3nc(C)c([C@H](OC(C)(C)C)C(=O)O)c(-c4cc(F)c5c(c4C)CCCO5)n3n2)c1` [Example 14, (2S)-2-tert-butoxy-2-(2-(3-ethoxybenzamido)-7-(8-fluoro-5-methylchroman-6-yl)-5-methylpyrazolo[1,5-a]pyrimidin-6-yl)acetic acid], where the note is “read-out: Activity”, the pEC50 was greater than 7.00.
Turning to `COc1ccc(C(=O)Nc2cc3nc(C)c([C@H](OC(C)(C)C)C(=O)O)c(-c4cc(F)c5c(c4C)CCCO5)n3n2)cc1OC` [Example 15, (2S)-2-tert-butoxy-2-(2-(3,4-dimethoxybenzamido)-7-(8-fluoro-5-methylchroman-6-yl)-5-methylpyrazolo[1,5-a]pyrimidin-6-yl)acetic acid], the pEC50 is 6.59. Further, for the setting “read-out: Activity”, the pEC50 was 6.00 to 7.00.
`Cc1nc2cc(NC(=O)CCc3ccccc3)nn2c(-c2cc(F)c3c(c2C)CCCO3)c1[C@H](OC(C)(C)C)C(=O)O` [Example 16, (2S)-2-tert-butoxy-2-(7-(8-fluoro-5-methylchroman-6-yl)-5-methyl-2-(3-phenylpropanamido)pyrazolo[1,5-a]pyrimidin-6-yl)acetic acid]: the pEC50 (read-out: Activity) was 6.00 to 7.00.
As to `CCCCCC(=O)Nc1cc2nc(C)c([C@H](OC(C)(C)C)C(=O)O)c(-c3cc(F)c4c(c3C)CCCO4)n2n1` [Example 17, (2S)-2-tert-butoxy-2-(7-(8-fluoro-5-methylchroman-6-yl)-2-hexanamido-5-methylpyrazolo[1,5-a]pyrimidin-6-yl)acetic acid], the pEC50 (read-out: Activity) is greater than 7.00.
